Assay results taken from patent US10947252B2, “Inhibitors of KEAP1-Nrf2 protein-protein interaction” (Janssen Pharmaceutica NV, priority 2018, dated 2021).

How the values were obtained:
[1] = molecular target: Kelch domain of human KEAP1 (321-624 aa) (Homo sapiens (Human), UniProt Q14145); assay: KEAP1 KELCH ThermoFluor binding assay; conditions: KEAP Kelch […], 1,8-ANS, pH 7.0, average of results obtained, read-out: Tf Kd;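 further: Ligand-induced melting temperature shift of E. coli-expressed KEAP1 Kelch protein, Kd estimated from concentration-response curves of ΔTm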
[2] = tested on: Glo-Response ARE-luc2P HEK293 cell line; assay: ARE luciferase reporter cell-based assay; conditions: Homo sapiens, HEK293, 24 h, average of results obtained;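 further: luciferase signal tracks Nrf2 activation of the ARE once compounds disrupt KEAP1-Nrf2 binding, read with One-Glo reagent, DMSO serving as low control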

Sequence of Kelch domain of human KEAP1 (321-624 aa) (Q14145 321-624): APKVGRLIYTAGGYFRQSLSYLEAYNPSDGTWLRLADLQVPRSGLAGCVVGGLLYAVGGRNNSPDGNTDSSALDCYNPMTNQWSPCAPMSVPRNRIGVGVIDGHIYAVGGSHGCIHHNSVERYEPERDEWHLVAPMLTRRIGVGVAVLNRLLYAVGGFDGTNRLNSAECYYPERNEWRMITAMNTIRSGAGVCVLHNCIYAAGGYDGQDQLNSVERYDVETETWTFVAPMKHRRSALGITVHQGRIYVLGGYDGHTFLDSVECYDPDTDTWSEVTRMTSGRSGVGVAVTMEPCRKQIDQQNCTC

| Structure (SMILES) | Kd [1] | EC50 [2] |
| --- | --- | --- |
| Cc1ccc([C@@H](CC(=O)O)c2ccn3c(C(F)(F)F)nnc3c2C)nc1CN1C[C@@H]2CCCCN2c2ncc(C#N)cc2S1(=O)=O (single isomer, unassigned) [Example 34, (*S)-3-(6-(((*S)-3-Cyano-5,5-dioxido-7,7a,8,9,10,11-hexahydro-6H-dipyrido[2,1-d:2′,3′-f][1,2,5]thiadiazepin-6-yl)methyl)-5-methylpyridin-2-yl)-3-(8-methyl-3-(trifluoromethyl)-[1,2,4]triazolo[4,3-a]pyridin-7-yl)propanoic Acid] | < 1 nM | 119 nM |
| Cc1ccc([C@@H](CC(=O)O)c2ccn3c(C(F)(F)F)nnc3c2C)nc1CN1C[C@H]2CCCCN2c2ncc(C#N)cc2S1(=O)=O (single isomer, unassigned) [Example 35, (*S)-3-(6-(((*R)-3-Cyano-5,5-dioxido-7,7a,8,9,10,11-hexahydro-6H-dipyrido[2,1-d:2′,3′-f][1,2,5]thiadiazepin-6-yl)methyl)-5-methylpyridin-2-yl)-3-(8-methyl-3-(trifluoromethyl)-[1,2,4]triazolo[4,3-a]pyridin-7-yl)propanoic Acid] | < 1 nM | 65.7 nM |
| Cc1ccc([C@H](CC(=O)O)c2ccn3c(C(F)(F)F)nnc3c2C)nc1CN1C[C@H]2CCCCN2c2ncc(C#N)cc2S1(=O)=O (single isomer, unassigned) [Example 36, (*R)-3-(6-(((*R)-3-Cyano-5,5-dioxido-7,7a,8,9,10,11-hexahydro-6H-dipyrido[2,1-d:2′,3′-f][1,2,5]thiadiazepin-6-yl)methyl)-5-methylpyridin-2-yl)-3-(8-methyl-3-(trifluoromethyl)-[1,2,4]triazolo[4,3-a]pyridin-7-yl)propanoic Acid] | < 1 nM | 15.2 nM |
| Cc1ccc([C@H](CC(=O)O)c2ccn3c(C(F)(F)F)nnc3c2C)nc1CN1C[C@@H]2CCCCN2c2ncc(C#N)cc2S1(=O)=O (single isomer, unassigned) [Example 37, (*R)-3-(6-(((*S)-3-Cyano-5,5-dioxido-7,7a,8,9,10,11-hexahydro-6H-dipyrido[2,1-d:2′,3′-f][1,2,5]thiadiazepin-6-yl)methyl)-5-methylpyridin-2-yl)-3-(8-methyl-3-(trifluoromethyl)-[1,2,4]triazolo[4,3-a]pyridin-7-yl)propanoic Acid] | < 1 nM | 25.7 nM |
| Cc1ccc([C@@H](c2ccn3c(C(F)(F)F)nnc3c2C)C(C)(C)C(=O)O)nc1CN1CC2(CCOCC2)Oc2ncccc2S1(=O)=O (single isomer, unassigned) [Example 38, (*S)-3-(6-((1′,1′-Dioxido-2,3,5,6-tetrahydrospiro[pyran-4,4′-pyrido[2,3-b][1,4,5]oxathiazepin]-2′(3′H)-yl)methyl)-5-methylpyridin-2-yl)-2,2-dimethyl-3-(8-methyl-3-(trifluoromethyl)-[1,2,4]triazolo[4,3-a]pyridin-7-yl)propanoic Acid] | < 1 nM | 7.2 nM |

Second part, led by results:

| Kd [1] | Structure (SMILES) | EC50 [2] |
| --- | --- | --- |
| 4250 nM | Cc1ccc([C@H](c2ccn3c(C(F)(F)F)nnc3c2C)C(C)(C)C(=O)O)nc1CN1CC2(CCOCC2)Oc2ncccc2S1(=O)=O (single isomer, unassigned) [Example 39, (*R)-3-(6-((1′,1′-Dioxido-2,3,5,6-tetrahydrospiro[pyran-4,4′-pyrido[2,3-b][1,4,5]oxathiazepin]-2′(3′H)-yl)methyl)-5-methylpyridin-2-yl)-2,2-dimethyl-3-(8-methyl-3-(trifluoromethyl)-[1,2,4]triazolo[4,3-a]pyridin-7-yl)propanoic Acid] | 1260 nM |
| < 1 nM | Cc1ccc([C@@H](c2ccn3c(C4CC4)nnc3c2C)C(C)(C)C(=O)O)cc1CN1CC2(CCOCC2)Oc2ncccc2S1(=O)=O (single isomer, unassigned) [Example 41, (*S)-3-(3-Cyclopropyl-8-methyl-[1,2,4]triazolo[4,3-a]pyridin-7-yl)-3-(3-((1′,1′-dioxido-2,3,5,6-tetrahydrospiro[pyran-4,4′-pyrido[2,3-b][1,4,5]oxathiazepin]-2′(3′H)-yl)methyl)-4-methylphenyl)-2,2-dimethylpropanoic Acid] | 46 nM |
| 7540 nM | Cc1ccc([C@H](c2ccn3c(C4CC4)nnc3c2C)C(C)(C)C(=O)O)cc1CN1CC2(CCOCC2)Oc2ncccc2S1(=O)=O (single isomer, unassigned) [Example 42, (*R)-3-(3-Cyclopropyl-8-methyl-[1,2,4]triazolo[4,3-a]pyridin-7-yl)-3-(3-((1′,1′-dioxido-2,3,5,6-tetrahydrospiro[pyran-4,4′-pyrido[2,3-b][1,4,5]oxathiazepin]-2′(3′H)-yl)methyl)-4-methylphenyl)-2,2-dimethylpropanoic Acid] | 3460 nM |
| < 1 nM | Cc1ncc([C@H](c2ccc3c(nnn3C3CC3)c2C)C(C)(C)C(=O)O)cc1CN1CC2(CCOCC2)Oc2ncccc2S1(=O)=O (single isomer, unassigned) [Example 44, (*S)-3-(1-Cyclopropyl-4-methyl-1H-benzo[d][1,2,3]triazol-5-yl)-3-(5-((1′,1′-dioxido-2,3,5,6-tetrahydrospiro[pyran-4,4′-pyrido[2,3-b][1,4,5]oxathiazepin]-2′(3′H)-yl)methyl)-6-methylpyridin-3-yl)-2,2-dimethylpropanoic Acid] | 54.3 nM |
| 42600 nM | Cc1ncc([C@@H](c2ccc3c(nnn3C3CC3)c2C)C(C)(C)C(=O)O)cc1CN1CC2(CCOCC2)Oc2ncccc2S1(=O)=O (single isomer, unassigned) [Example 45, (*R)-3-(1-Cyclopropyl-4-methyl-1H-benzo[d][1,2,3]triazol-5-yl)-3-(5-((1′,1′-dioxido-2,3,5,6-tetrahydrospiro[pyran-4,4′-pyrido[2,3-b][1,4,5]oxathiazepin]-2′(3′H)-yl)methyl)-6-methylpyridin-3-yl)-2,2-dimethylpropanoic Acid] | 6560 nM |
| < 1 nM | Cc1ccc([C@@H](c2ccn3c(C(F)(F)F)nnc3c2C)C(C)(C)C(=O)O)cc1CN1CC2(CCOCC2)Oc2nc(OCCN3CCOCC3)ccc2S1(=O)=O (single isomer, unassigned) [Example 47, (*S)-2,2-Dimethyl-3-(4-methyl-3-((7′-(2-morpholinoethoxy)-1′,1′-dioxido-2,3,5,6-tetrahydrospiro[pyran-4,4′-pyrido[2,3-b][1,4,5]oxathiazepin]-2′(3′H)-yl)methyl)phenyl)-3-(8-methyl-3-trifluoromethyl)-[1,2,4]triazolo[4,3-a]pyridine-7-yl)propanoic Acid] | 17.9 nM |
| 820 nM | Cc1ccc([C@H](c2ccn3c(C(F)(F)F)nnc3c2C)C(C)(C)C(=O)O)cc1CN1CC2(CCOCC2)Oc2nc(OCCN3CCOCC3)ccc2S1(=O)=O (single isomer, unassigned) [Example 48, (*R)-2,2-Dimethyl-3-(4-methyl-3-((7′-(2-morpholinoethoxy)-1′,1′-dioxido-2,3,5,6-tetrahydrospiro[pyran-4,4′-pyrido[2,3-b][1,4,5]oxathiazepin]-2′(3′H)-yl)methyl)phenyl)-3-(8-methyl-3-trifluoromethyl)-[1,2,4]triazolo[4,3-a]pyridine-7-yl)propanoic Acid] | 6270 nM |
